Experimental data: patent publication US20040092547A1, “Alkyl-[4-(difluorophenyl)-oxazol-5-yl]-triazolo-pyridines” (Pfizer Inc, priority 2002, published 2004)

melting point: 175.7 to 176.2 °C
Compound: CC(C)c1nnc2ccc(-c3ocnc3-c3c(F)cccc3F)cn12 [Example 1, 6-[4-(2,6-Difluoro-phenyl)-oxazol-5-yl]-3-isopropyl-[1,2,4]triazolo[4,3-a]pyridine]
